What was measured:
[1] = Oxygen radical absorbency capacity (ORAC)
THP-1 monocytes = test: Protection from oxidative stress, MitoSOX Red mitochondrial superoxide indicator, flow cytometry; assay type: cell-based; settings: 3 hours treatment, then H2O2 challenge 3 hours, sample 100 ug/ml final, positive control 100 uM, 0% = challenged negative control, 100% = unchallenged normal control
From the text: The assay described in this experiment measures oxidative stress occurring within the mitochondria. As discussed above, the biochemical reactions used by mitochondria to generate energy yielding ATP molecules also produce highly oxidizing superoxide free radical as a by-product. Using flow cytometry, the below example measures the protection various test samples provide from oxidative stress by monitoring the status of superoxide within mitochondria following treatment with the test materials.
MitoSOX Red mitochondrial superoxide indicator (Invitrogen cat#M36008) is a fluorescent dye that is selectively taken up by mitochondria. Once in the mitochondria, MitoSOX reacts with superoxide free radical to form a fluorescent product (excitation/emission maxima=510/580 nm) that binds to mitochondrial nucleic acids. A higher fluorescence reading corresponds to a higher level of superoxide free radical being present within the mitochondria.
Cell Culture: One 6 well plate is used per sample. Multiple plates may be prepared simultaneously. Refer to Table I for a plate description. THP-1 monocytes (ATCC cat# TIB-202) are plated at 1.5×10^6 cells/well in 6 well plates (contained in 2 ml/well RMPI 1640 media supplemented with 10% FBS) and incubated for 1 hour before treating.
Treatment: Glutathione monoethylester (GMEE, 100 uM final concentration) is used as a positive control. […]

Structure (SMILES) | oxygen radical absorbency capacity (ORAC) [1] | protection from oxidative stress (THP-1 monocytes)
COC(=O)c1cc(O)ccc1O [Methylgentisate, methylgentisate] | 25,605 μmol Teq/g | 
CCOC(=O)CNC(=O)[C@H](CS)NC(=O)CC[C@H](N)C(=O)O [glutathione methyl ester] |  | 35%
